From patent EP4635949A1 (Jiangsu NHWA Pharmaceutical Co., Ltd, priority 2022, dated 2024) come the findings set out here.

Like-named read-outs stand apart in the source and are kept apart here.

One data set has as its target T1, OX1 receptor (Homo sapiens, UniProt O43613).
T1 construct: host or cells: CHO-K1
T1 sequence (O43613 1-425): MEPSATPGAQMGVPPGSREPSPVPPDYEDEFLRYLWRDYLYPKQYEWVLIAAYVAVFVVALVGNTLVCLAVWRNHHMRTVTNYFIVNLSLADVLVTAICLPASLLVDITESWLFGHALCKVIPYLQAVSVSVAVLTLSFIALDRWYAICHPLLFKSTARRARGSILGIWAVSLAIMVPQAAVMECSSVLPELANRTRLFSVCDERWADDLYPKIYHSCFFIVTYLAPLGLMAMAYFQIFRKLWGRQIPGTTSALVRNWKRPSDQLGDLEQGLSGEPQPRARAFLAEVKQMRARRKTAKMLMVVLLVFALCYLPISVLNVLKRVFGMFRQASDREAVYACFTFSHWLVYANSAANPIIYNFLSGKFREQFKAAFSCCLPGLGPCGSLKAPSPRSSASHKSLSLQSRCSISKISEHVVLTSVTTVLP
Nature of the data set: Orexin target function test (Cisbio HTRF IP-one), CHO-K1-OX1 cells, antagonism of EC80 Orexin A. In kind it is cell-based. As for the experimental part: (§1) Using Cisbio HTRF IP-one kit to detect the changes in IP-one concentration of orexin receptor (OX1/OX2) signaling pathway by microplate reader, and calculating the IC50 value of the compound to evaluate the antagonistic effect of the compound on OX1 and OX2 receptors.
(§2) The cells were centrifuged at 1000 rpm for 5 minutes and the supernatant was discarded. 3 mL of PBS was added, and gently blown with a pipette to mix. After centrifugation at 1000 rpm for 5 minutes again, the supernatant was discarded. […] Based on the antagonistic effect values of the compound samples at different concentrations, the GraphPad Prism software was used to fit the orexin receptor antagonism curve of the compound samples and calculate the IC50.

For the next data set, the target named is T2, OX2 receptor (Homo sapiens, UniProt O43614).
T2 construct: host or cells: CHO-K1
T2 sequence (O43614 1-444): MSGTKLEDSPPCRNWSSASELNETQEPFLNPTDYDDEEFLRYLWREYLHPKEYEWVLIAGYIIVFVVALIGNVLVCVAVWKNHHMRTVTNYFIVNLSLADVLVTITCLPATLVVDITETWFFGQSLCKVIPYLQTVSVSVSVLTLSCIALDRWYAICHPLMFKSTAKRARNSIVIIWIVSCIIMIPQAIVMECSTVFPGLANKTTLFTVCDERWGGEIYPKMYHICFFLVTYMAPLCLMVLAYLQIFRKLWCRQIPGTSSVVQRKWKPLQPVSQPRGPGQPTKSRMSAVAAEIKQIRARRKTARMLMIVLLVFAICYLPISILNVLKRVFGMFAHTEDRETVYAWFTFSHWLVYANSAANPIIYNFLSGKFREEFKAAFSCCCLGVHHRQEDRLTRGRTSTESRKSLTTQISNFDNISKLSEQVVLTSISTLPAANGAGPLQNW
Nature of the data set: Orexin target function test (Cisbio HTRF IP-one), CHO-K1-OX2 cells, antagonism of EC80 Orexin 2 receptor agonist. In kind it is cell-based. As for the experimental part: as §1, §2

A further data set in a line: in vivo. The conditions noted are these: male, SD, rat, plasma.
Where [1] appears, read: CHO-K1-OX1 cells, IP-one, read-out: hOXIR IC50.
Setting [2] is: CHO-K1-OX2 cells, IP-one, read-out: hOX2R IC50.
Setting [3] is: ratio of OX1R IC50 to OX2R IC50.

As for `COc1ccc(C(=O)N2C[C@H]3CC(c4nc(Cl)cnc4OC)=C[C@H]3C2)c(-n2nccn2)c1` (relative stereo) [Compound 54], the IC50 (as a rule, the midpoint of a concentration-inhibition curve) on OX1 receptor (setting [1]) is 2600 nM; at OX2 receptor (setting [2]), 22 nM. For the same molecule, the Selectivity at OX2 receptor (setting [3]) amounted to 118.
On to `CCc1c(C)nc(C2=CC3CN(C(=O)c4c(F)cccc4-n4nccn4)CC3C2)nc1C` (centres unmarked) [Compound 11, (5-(5-ethyl-4,6-dimethylpyrimidin-2-yl)-3,3a,4,6a-tetrahydrocyclopenta[c]pyrrol-2(1H)-yl)(2-fluoro-6-(2H-1,2,3-triazol-2-yl)phenyl)methanone], for which the IC50 on OX1 receptor (setting [1]) came to 1950 nM; at OX2 receptor (setting [2]) it was 27 nM. At OX2 receptor (setting [3]), the Selectivity came out at 72.
In the case of `Cc1nc(C2=CC3CN(C(=O)c4c(F)cccc4-n4nccn4)CC3C2)nc2c1CCCC2` (centres unmarked) [Compound 14, (2-fluoro-6-(2H-1,2,3-triazol-2-yl)phenyl)(5-(4-methyl-5,6,7,8-tetrahydroquinazolin-2-yl)-3,3a, 4,6a-tetrahydrocyclopenta[c]pyrrol-2(1H)-yl)methanone], the figures for the IC50 on OX1 receptor (setting [1]) and on OX2 receptor (setting [2]) were 2750 nM and 24 nM, respectively. The Selectivity at OX2 receptor (setting [3]) came to 114.
Consider `Cc1nc(C2=CC3CN(C(=O)c4c(F)cccc4-n4nccn4)CC3C2)nc2c1COCC2` (centres unmarked) [Compound 16, (2-fluoro-6-(2H-1,2,3-triazol-2-yl)phenyl)(5-(4-methyl-7,8-dihydro-5H-pyrano[4,3-d]pyrimidin-2-yl)-3,3a,4,6a-tetrahydrocyclopenta[c]pyrrol-2(1H)-yl)methanone], for which the concentration for half-maximal inhibition (IC50) at OX1 receptor (setting [1]) was determined as 1880 nM; on OX2 receptor (setting [2]), 20 nM. Also, the Selectivity at OX2 receptor (setting [3]) was 94.
For the molecule `Cc1nc(C2=CC3CN(C(=O)c4c(F)cccc4-n4nccn4)CC3C2)nc2c1CCC2` (centres unmarked) [Compound 17, (2-fluoro-6-(2H-1,2,3-triazol-2-yl)phenyl)(5-(4-methyl-6,7-dihydro-5H-cyclopenta[d]pyrimidin-2-yl)-3,3a,4,6a-tetrahydrocyclopenta[c]pyrrol-2(1H)-yl)methanone], the concentration for half-maximal inhibition (IC50) at OX1 receptor stood at 2880 nM; on OX2 receptor, 22 nM. For the same molecule, the Selectivity at OX2 receptor (setting [3]) was found to be 131.
For the molecule `Cc1nc(C2=CC3CN(C(=O)c4c(F)cccc4-n4nccn4)CC3C2)nc2ccoc12` (centres unmarked) [Compound 18, (2-fluoro-6-(2H-1,2,3-triazol-2-yl)phenyl)(5-(4-methylfuro[3,2-d]pyrimidin-2-yl)-3,3a,4,6a-tetrahydrocyclopenta[c]pyrrol-2(1H)-yl)methanone], the IC50 on OX1 receptor is 2310 nM; at OX2 receptor, 23.4 nM. In addition, the Selectivity on OX2 receptor (setting [3]) was 99.
For `Cc1nc(C2=CC3CN(C(=O)c4c(F)cccc4-n4nccn4)CC3C2)nc2c1OCC2` (centres unmarked) [Compound 19, (2-fluoro-6-(2H-1,2,3-triazol-2-yl)phenyl)(5-(4-methyl-6,7-dihydrofuro[3,2-d]pyrimidin-2-yl)-3,3a,4,6a-tetrahydrocyclopenta[c]pyrrol-2(1H)-yl)methanone], the half-inhibitory concentration (IC50) turned out to be 2480 nM at OX1 receptor (setting [1]) and 18 nM at OX2 receptor (setting [2]). For the same molecule, the Selectivity on OX2 receptor (setting [3]) was 138.
Turning to `COc1nc(C2=CC3CN(C(=O)c4ccccc4-n4nccn4)CC3C2)nc(C)c1F` (centres unmarked) [Compound 27, (2-(2H-1,2,3-triazol-2-yl)phenyl)(5-(5-fluoro-4-methoxy-6-methylpyrimidin-2-yl)-3,3a,4,6a-tetrahydrocyclopenta[c]pyrrol-2(1H)-yl)methanone], the IC50 at OX1 receptor (setting [1]) was found to be 1680 nM; on OX2 receptor (setting [2]), 20 nM. The Selectivity at OX2 receptor (setting [3]) stood at 84.
Take `Cc1nc(C2=CC3CN(C(=O)c4c(F)cccc4-c4cc[nH]n4)CC3C2)nc(C)c1F` (centres unmarked) [Compound 29, (5-(5-fluoro-4,6-dimethylpyrimidin-2-yl)-3,3a,4,6a-tetrahydrocyclopenta[c]pyrrol-2(1H)-yl)(2-fluoro-6-(1H-pyrazol-3-yl)phenyl)methanone]: the IC50 at OX1 receptor (setting [1]) worked out at 1280 nM; on OX2 receptor (setting [2]), 20 nM. For the same molecule, the Selectivity on OX2 receptor (setting [3]) amounted to 64.
As for `[2H]C([2H])([2H])c1nc(C2=CC3CN(C(=O)c4ccc(F)cc4-n4nccn4)CC3C2)nc(C([2H])([2H])[2H])c1F` (centres unmarked) [Compound 30, (4-fluoro-2-(2H-1,2,3-triazol-2-yl)phenyl)(5-(5-fluoro-4,6-bis(methyl-d3)pyrimidin-2-yl)-3,3a,4,6a-tetrahydrocyclopenta[c]pyrrol-2(1H)-yl)methanone], the figures for the 50% inhibitory concentration (IC50) against OX1 receptor and on OX2 receptor were 3920 nM and 21 nM, respectively. Moreover, the Selectivity at OX2 receptor (setting [3]) was 186.
On to `[2H]C([2H])([2H])Oc1cc(-n2nccn2)c(C(=O)N2CC3C=C(c4nc(C)c(F)c(C)n4)CC3C2)cn1` (centres unmarked) [Compound 34, (5-(5-fluoro-4,6-dimethylpyrimidin-2-yl)-3,3a,4,6a-tetrahydrocyclopenta[c]pyrrol-2(1H)-yl)(6-(methoxy-d3)-4-(2H-1,2,3-triazol-2-yl)pyridin-3-yl)methanone], for which the IC50 at OX1 receptor is 5000 nM; on OX2 receptor, 24 nM. At OX2 receptor, the Selectivity is 208.
In the same order, the values of `[2H]C([2H])([2H])Oc1ccc(C(=O)N2CC3C=C(c4nc(C)c(F)c(C)n4)CC3C2)c(-n2nccn2)c1` (centres unmarked) [Compound 36, (5-(5-fluoro-4,6-dimethylpyrimidin-2-yl)-3,3a,4,6a-tetrahydrocyclopenta[c]pyrrol-2(1H)-yl)(4-(methoxy-d3)-2-(2H-1,2,3-triazol-2-yl)phenyl)methanone] are 3100 nM, 18 nM and 172.
Take `Cc1nc(C2=CC3CN(C(=O)c4c(F)cccc4-n4nccn4)CC3C2)nc(C(C)(C)O)c1F` (centres unmarked) [Compound 37, (5-(5-fluoro-4-(2-hydroxypropan-2-yl)-6-methylpyrimidin-2-yl)-3,3a,4,6a-tetrahydrocyclopenta[c]pyrrol-2(1H)-yl)(2-fluoro-6-(2H-1,2,3-triazol-2-yl)phenyl)methanone]: in “in vivo” (iv, 1 mg/kg), the exposure AUC(0-t) (in general, the area under the concentration-time curve up to a stated or last time point) was 626 ng·h/mL and the peak concentration (Cmax) – broadly, the peak of the concentration-time curve – was 980 ng/mL. Also, in the data set “in vivo” (po, 30 mg/kg), the area under the curve AUC(0-t) is 16800 ng·h/mL; the peak concentration (Cmax) came out at 9240 ng/mL; the bioavailability (commonly dose-corrected exposure relative to a reference, in per cent) is 89.3%.
As for `Cc1nc(C2=CC3CN(C(=O)c4c(F)cccc4-n4nccn4)CC3C2)nc(C)c1CF` (centres unmarked) [Compound 38, (2-fluoro-6-(2H-1,2,3-triazol-2-yl)phenyl)(5-(5-(fluoromethyl)-4,6-dimethylpyrimidin-2-yl)-3,3a,4,6a-tetrahydrocyclopenta[c]pyrrol-2(1H)-yl)methanone], the results for the IC50 on OX1 receptor (setting [1]) and on OX2 receptor (setting [2]) were 1800 nM and 22 nM, respectively. On OX2 receptor (setting [3]), the Selectivity is recorded as 82.
In the case of `COc1ncc(C)nc1C1=CC2CN(C(=O)c3c(F)cccc3-c3ncccn3)CC2C1` (centres unmarked) [Compound 43, (2-fluoro-6-(pyrimidin-2-yl)phenyl)(5-(3-methoxy-6-methylpyrazin-2-yl)-3,3a,4,6a-tetrahydrocyclopenta[c]pyrrol-2(1H)-yl)methanone], the values for the IC50 at OX1 receptor (setting [1]) and at OX2 receptor (setting [2]) were 2100 nM and 28 nM, respectively. Further, at OX2 receptor (setting [3]), the Selectivity turned out to be 75.
As to `COc1cnc(OC)c(C2=CC3CN(C(=O)c4ccc(F)cc4-n4nccn4)CC3C2)n1` (centres unmarked) [Compound 50, [5-(3,6-dimethoxypyrazin-2-yl)-3,3a,4,6a-tetrahydrocyclopenta[c]pyrrol-2(1H)-yl][4-fluoro-2-(2H-1,2,3-triazol-2-yl)phenyl]methanone], the IC50 worked out at 3610 nM against OX1 receptor and 27 nM at OX2 receptor. For the same molecule, the Selectivity at OX2 receptor (setting [3]) amounted to 134.
Regarding `COc1ccc(C(=O)N2CC3C=C(c4nc(OC)cnc4OC)CC3C2)c(-n2nccn2)c1` (centres unmarked) [Compound 53, [5-(3,6-dimethoxypyrazin-2-yl)-3,3a,4,6a-tetrahydrocyclopenta[c]pyrrol-2(1H)-yl][4-methoxy-2-(2H-1,2,3-triazol-2-yl)phenyl]methanone], the half-inhibitory concentration (IC50) on OX1 receptor (setting [1]) turned out to be 2860 nM; at OX2 receptor (setting [2]), 32 nM. At OX2 receptor (setting [3]), the Selectivity amounted to 89.
For `COc1ncc(C2CC2)nc1C1=CC2CN(C(=O)c3ccc(F)cc3-n3nccn3)CC2C1` (centres unmarked) [Compound 55, [5-(6-cyclopropyl-3-methoxypyrazin-2-yl)-3,3a,4,6a-tetrahydrocyclopenta[c]pyrrol-2(1H)-yl][4-fluoro-2-(2H-1,2,3-triazol-2-yl)phenyl]methanone], the figures for the half-maximal inhibitory concentration (IC50) against OX1 receptor and at OX2 receptor were 1900 nM and 28 nM, respectively. On OX2 receptor (setting [3]), the Selectivity amounted to 67.
